Experimental data: ChEMBL document CHEMBL4602614, “Design, synthesis and cholinesterase inhibitory activity of novel spiropyrrolidine tethered imidazole heterocyclic hybrids” (Bioorg Med Chem Lett, 2020)

Tests used:
Cholinesterase = Cholinesterase (Homo sapiens, UniProt P06276); assay: Inhibition of BChE (unknown origin)
Acetylcholinesterase = Acetylcholinesterase (Homo sapiens, UniProt P22303); assay: Inhibition of AChE (unknown origin)
Acetylcholinesterase, sequence (P22303 whole entry): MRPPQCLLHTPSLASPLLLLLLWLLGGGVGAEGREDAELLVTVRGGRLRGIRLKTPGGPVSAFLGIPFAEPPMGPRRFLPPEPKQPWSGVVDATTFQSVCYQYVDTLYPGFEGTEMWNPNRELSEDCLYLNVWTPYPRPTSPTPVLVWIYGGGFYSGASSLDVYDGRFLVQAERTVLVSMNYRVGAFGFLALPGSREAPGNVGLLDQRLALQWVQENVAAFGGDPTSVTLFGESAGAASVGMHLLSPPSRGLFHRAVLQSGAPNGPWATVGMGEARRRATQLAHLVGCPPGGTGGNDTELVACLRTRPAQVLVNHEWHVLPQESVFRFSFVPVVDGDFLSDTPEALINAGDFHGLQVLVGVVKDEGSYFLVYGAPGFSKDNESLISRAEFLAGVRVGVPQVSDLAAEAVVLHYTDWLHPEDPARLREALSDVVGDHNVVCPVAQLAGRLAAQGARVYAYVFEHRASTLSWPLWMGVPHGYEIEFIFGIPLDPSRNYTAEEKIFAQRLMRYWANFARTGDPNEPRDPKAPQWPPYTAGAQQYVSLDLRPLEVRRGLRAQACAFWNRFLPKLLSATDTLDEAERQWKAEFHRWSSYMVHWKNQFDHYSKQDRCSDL

Cholinesterase, sequence (P06276 whole entry): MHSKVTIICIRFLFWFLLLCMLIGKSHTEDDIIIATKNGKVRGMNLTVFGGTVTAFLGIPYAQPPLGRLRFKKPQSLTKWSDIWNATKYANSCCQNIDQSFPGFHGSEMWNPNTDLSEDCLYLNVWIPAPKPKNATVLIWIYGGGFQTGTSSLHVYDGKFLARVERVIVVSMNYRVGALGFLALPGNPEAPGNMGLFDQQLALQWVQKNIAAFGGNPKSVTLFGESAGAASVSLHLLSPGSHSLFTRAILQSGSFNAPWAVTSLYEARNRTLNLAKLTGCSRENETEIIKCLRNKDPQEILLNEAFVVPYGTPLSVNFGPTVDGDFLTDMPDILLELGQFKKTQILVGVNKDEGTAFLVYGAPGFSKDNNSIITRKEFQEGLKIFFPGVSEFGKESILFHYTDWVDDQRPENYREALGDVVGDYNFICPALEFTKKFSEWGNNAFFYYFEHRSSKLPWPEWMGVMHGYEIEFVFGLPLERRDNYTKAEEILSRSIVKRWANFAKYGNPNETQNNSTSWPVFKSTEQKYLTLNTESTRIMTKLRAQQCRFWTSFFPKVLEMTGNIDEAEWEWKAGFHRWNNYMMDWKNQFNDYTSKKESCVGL

SMILES	IC50 (Cholinesterase) [µM]	IC50 (Acetylcholinesterase) [µM]
O=[N+]([O-])C1C(Cc2c[nH]cn2)NC2(c3ccccc3-c3nc4ccccc4nc32)C1c1ccc(Cl)cc1 (configuration not stated)	21.6	18.2
Cc1cccc(C2C([N+](=O)[O-])C(Cc3c[nH]cn3)NC23c2ccccc2-c2nc4ccccc4nc23)c1 (configuration not stated)	13.6	7.8
COc1cccc(C2C([N+](=O)[O-])C(Cc3c[nH]cn3)NC23c2ccccc2-c2nc4ccccc4nc23)c1 (configuration not stated)	14.7	9.2
O=[N+]([O-])C1C(Cc2c[nH]cn2)NC2(c3ccccc3-c3nc4ccccc4nc32)C1c1ccccc1 (configuration not stated)	15.6	11.8
COc1ccc(C2C([N+](=O)[O-])C(Cc3c[nH]cn3)NC23c2ccccc2-c2nc4ccccc4nc23)cc1 (configuration not stated)	11.5	2.05
COc1ccccc1C1C([N+](=O)[O-])C(Cc2c[nH]cn2)NC12c1ccccc1-c1nc3ccccc3nc12 (configuration not stated)	14.2	5.22
O=[N+]([O-])C1C(Cc2c[nH]cn2)NC2(c3ccccc3-c3nc4ccccc4nc32)C1c1ccc(Br)cc1 (configuration not stated)	26.6	16.2
Cc1ccccc1C1C([N+](=O)[O-])C(Cc2c[nH]cn2)NC12c1ccccc1-c1nc3ccccc3nc12 (configuration not stated)	13.8	10
O=[N+]([O-])C1C(Cc2c[nH]cn2)NC2(c3ccccc3-c3nc4ccccc4nc32)C1c1ccco1 (configuration not stated)	22.3	14.2
O=[N+]([O-])C1C(Cc2c[nH]cn2)NC2(c3ccccc3-c3nc4ccccc4nc32)C1c1ccccn1 (configuration not stated)	24.3	17
Cc1ccc(C2C([N+](=O)[O-])C(Cc3c[nH]cn3)NC23c2ccccc2-c2nc4ccccc4nc23)cc1 (configuration not stated)	12.4	2.02
